Patent publication US20130245064A1, “NOVEL NEUROTRYPSIN INHIBITORS” (priority 2010, published 2013)

How the values were obtained:
[1] = biological target: T1, Factor Xa (Homo sapiens, UniProt P00742); assay: Determination of IC50 for various proteases: Factor Xa; type: biochemical; details: Factor Xa 5 nM, substrate S-2288 0.5 mM; Mean ± SD
T1 construct: purchased American diagnostic
Protocol: (§1) A 6 mM solution of the test compound in DMSO was prepared. In a V-bottom micro plate the 6 mM compound solution was diluted 6 times in DMSO to obtain a concentration row with the following concentrations: 6 mM, 1.8 mM, 540 μM, 162 μM, 48.8 μM, 14.4 μM, and 4 μM. From this DMSO master plate 1:20 dilutions in 10 mM MOPS pH 8.3 were prepared to obtain solutions of 300, 90, 27, 8.1, 2.44, 0.72 and 0.22 μM in MOPS buffer and 5% DMSO.
(§2) 100 μl of this solution were pipetted into a flat bottom 96 well microplate and placed into a Tecan infinite 200 plate reader. Before measurement, 50 μl of protease solution and, subsequently 50 μl substrate solution were added by the machine. The liberation of free para nitroanilide was detected at 405 nm. The protease solution was freshly prepared by diluting to the desired concentration from a stock solution in 60 mM MOPS; 600 mM NaCl; 20 mM CaCl2; 10% DMSO; 0.4% PEG 6000 pH 8.3. The substrate solution was prepared by dissolving the solid substrate in an adequate amount of water to get the desired concentrations. The used protease and substrate solutions are given below:
(§3) All enzymes except trypsin were from human origin (American diagnostic). Trypsin was hog trypsin (Sigma Aldrich). Substrates were purchased from Chromogenix. […]

[2] = biological target: T2, tPA (2 chain) (Homo sapiens, UniProt P00750); assay: Determination of IC50 for various proteases: tPA; type: biochemical; details: tPA (2 chain) 40 nM, substrate S-2288 0.5 mM; Mean ± SD
T2 construct: tPA (2 chain); purchased American diagnostic
Protocol: as §1, §2, §3

[3] = biological target: T3, Trypsin (Sus scrofa, UniProt P00761); assay: Determination of IC50 for various proteases (chromogenic substrate, pNA release at 405 nm): trypsin; type: biochemical; details: hog trypsin 2 nM, substrate S-2222 0.5 mM; Mean ± SD
T3 construct: purchased Sigma Aldrich
Protocol: as §1, §2, §3

[4] = tested on: C-terminal agrin fragment (CAF); assay: Analysis of serum CAF levels by western blotting in treated mice; type: in vivo, C57/BL6 mice; details: mouse serum pools, 25 mg/kg x 3 s.c., 5 h after last injection, western blot normalized to vehicle
Protocol: Adult (P50) C57/BL6 mice from Charles River were used for the experiments. All animal experiments are performed in accordance with international guidelines for proper conduct of animal experiment under jurisdiction of the Swiss law (Permit number ZH-18/2008). For every mouse in the experiment the well-being during the interventions is documented in a score sheet.
Three adult mice were treated with 2.5 ml/kg of a 10 mg/ml solution of the compound of Example 1 in 100% DMSO. This corresponds to a dose of 25 mg/kg active ingredient. As vehicle control, 3 mice were treated with 2.5 ml/kg of 100% DMSO. Each mouse received three subcutaneous injections. Between dose 1 and dose 2 there were 8 h, between dose 2 and dose 3 16 h. 5 h after the last injection the mice were euthanatized with CO2.
Before the first injection the mice were weighted and ˜100 μl of blood was collected from the lateral tail vein. Serum was prepared with centrifugation of blood samples in Microvette 500 Z-Gel tubes (10,000 g, 20° C., 5 min). […]
After staining for CAF the membrane was washed thoroughly and reused for a staining for endogenous mouse antibodies that served as loading control. […] After imaging with a Stella imaging system (Raytest) the intensity of the CAF bands was measured with AIDA picture analysis software (Raytest) and normalized to the loading levels determined from mouse antibody light chains. […]

T3 sequence (P00761 9-231): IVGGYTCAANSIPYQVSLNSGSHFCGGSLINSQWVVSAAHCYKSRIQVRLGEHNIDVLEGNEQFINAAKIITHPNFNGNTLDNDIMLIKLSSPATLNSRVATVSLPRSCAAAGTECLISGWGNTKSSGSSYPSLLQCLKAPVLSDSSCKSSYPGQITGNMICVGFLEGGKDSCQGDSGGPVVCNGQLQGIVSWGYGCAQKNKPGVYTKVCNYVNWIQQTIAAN
T2 sequence (P00750 311-562 limits assumed): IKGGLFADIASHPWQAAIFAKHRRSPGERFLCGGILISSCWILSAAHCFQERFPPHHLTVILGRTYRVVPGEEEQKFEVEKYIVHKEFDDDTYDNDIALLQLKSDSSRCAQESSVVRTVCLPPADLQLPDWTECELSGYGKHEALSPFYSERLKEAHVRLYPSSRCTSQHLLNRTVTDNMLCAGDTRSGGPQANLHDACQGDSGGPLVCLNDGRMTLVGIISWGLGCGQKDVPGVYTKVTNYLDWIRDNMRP
T2 sequence (P00750 36-310 partner limits assumed): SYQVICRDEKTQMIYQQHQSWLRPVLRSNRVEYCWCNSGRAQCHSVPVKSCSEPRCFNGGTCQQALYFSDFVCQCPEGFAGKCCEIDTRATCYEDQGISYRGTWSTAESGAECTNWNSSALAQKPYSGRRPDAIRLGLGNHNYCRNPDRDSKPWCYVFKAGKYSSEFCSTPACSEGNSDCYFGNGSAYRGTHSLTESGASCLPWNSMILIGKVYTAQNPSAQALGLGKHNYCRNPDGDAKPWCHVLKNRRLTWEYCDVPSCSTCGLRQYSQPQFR
T1 sequence (P00742 235-488 limits assumed): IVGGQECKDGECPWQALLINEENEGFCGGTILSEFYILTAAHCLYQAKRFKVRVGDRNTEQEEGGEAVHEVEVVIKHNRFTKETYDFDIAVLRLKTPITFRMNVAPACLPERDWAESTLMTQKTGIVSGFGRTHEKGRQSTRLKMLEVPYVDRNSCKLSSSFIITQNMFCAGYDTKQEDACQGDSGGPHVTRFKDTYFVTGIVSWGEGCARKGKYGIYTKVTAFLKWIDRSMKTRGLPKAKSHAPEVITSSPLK
T1 sequence (P00742 41-179 partner limits assumed): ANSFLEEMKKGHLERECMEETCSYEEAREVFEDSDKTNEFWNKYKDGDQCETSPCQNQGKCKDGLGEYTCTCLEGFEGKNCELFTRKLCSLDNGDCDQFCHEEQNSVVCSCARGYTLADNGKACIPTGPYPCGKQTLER

O=C(Nc1ccc(C(=O)Nc2ccc(Cl)cc2)c(O)c1)c1ccc(-c2nc3cc(Cl)c(Cl)cc3[nH]2)cc1 [Example 1, N-(4-Chlorophenyl)-4-(4-(5,6-dichloro-1H-benzo[d]imidazol-2-yl)benzamido)-2-hydroxybenzamide]
IC50 [1]: 84.8 ± 46.4 µM | IC50 [2]: > 150 µM | IC50 [3]: > 150 µM | Average CAF levels [4]: 66.6 % of vehicle
